# Test system: balb c 3T3 fibroblasts
# Assay: Inhibition of PDGF-stimulated balb c 3T3 fibroblast proliferation (3H-thymidine incorporation)
# Type: cell-based
# Details: Mus musculus, BALB/c3T3; ^3 H-thymidine incorporation stimulated by PDGF in balb c 3T3 fibroblasts
# Protocol: Measurement of inhibition of the balb c 3T3 fibroblast proliferation induced by a growth factor […]
# Inhibition of the cell proliferation induced by a growth factor (for example PDGF) is evaluated by measuring the ^3 H-thymidine incorporation into balb c 3T3 fibroblasts.
# The balb c 3T3 fibroblasts are cultivated at 37° C. with 5% of CO2 up to the point of subconfluence and are then placed for 24 hours under rest conditions in a serum-impoverished medium. They are subsequently pretreated for one hour with the test molecule and then stimulated for 24 hours with a growth factor (for example PDGF). ^3 H-Thymidine is incorporated over the last 2 hours. All these steps are performed at 37° C. with 5% of CO2.
# The reaction is terminated by sucking off the reaction medium, detaching the cells and then filtering the lyzed cells through glass fiber filters.
# The results are expressed as the percentage inhibition of the stimulation of ^3 H-thymidine incorporation due to the action of the growth factor.
row,Compound,IC50
1,"N#CC(=Cc1cc2cccnc2n(-c2cc(Cl)cc(Cl)c2)c1=O)c1cccnc1 [Example 78, 3-[1-(3,5-dichlorophenyl)-1,2-dihydro-2-oxo-1,8-naphthyridin-3-yl]-2-(3-pyridyl)prop-2-enenitrile]",300 nM
2,"N#CC(=Cc1cc2cccnc2n(-c2cc(Cl)cc(Cl)c2)c1=O)c1ccncc1 [Example 81, 3-[1-(3,5-dichlorophenyl)-1,2-dihydro-2-oxo-1,8-naphthyridin-3-yl]-2-(4-pyridyl)prop-2-enenitrile]",200 nM

# Reference: patent US5663181A, “Naphthyridine derivatives, their methods of preparation and pharmaceutical compositions in which they are present, useful especially as antiproliferative drugs” (Laboratoires UPSA, priority 1993, dated 1997)
